Where a SMILES comes first, the peptide text is derived from it.
Tests used:
[1] = Solubility screening of the composition (visual precipitates or turbidity); assay type: physicochemical; details: for Solubility of the composition, 0.50%: nitrogen compound 0.50 wt/vol % with 1.0 wt/vol % α methyl-D glucoside in medium; for Solubility of the composition, 1.00%: nitrogen compound 1.00 wt/vol % with 1.0 wt/vol % α methyl-D glucoside in medium
Description: Each composition in Table 1 went through initial screening measures of solubility and initial pH (“I pH”). […] When a specific concentration of a nitrogen containing compound was insoluble, the initial and final pH (“F pH”) of the combined composition was not measured and accordingly are each marked as “NM.” Additionally, initial pH of the composition was checked as a screening measure. The initial pH was marked as either Low (“L”), High (“H”), or Pass (“P”). A Low initial pH corresponds to an initial pH being less than 5.5, a High initial pH corresponds to an initial pH being greater than 6.5, and a Pass initial pH corresponds to the pH being at or between 5.5-6.5. […] As part of the Therapeutic Effect Protocol, a final pH was also measured after the compositions that were tested against the Lactobacillus and E. coli.
All of the ingredients in Table 2 were combined and the pH was adjusted to 6.5. […] To evaluate the effect of various nitrogen containing therapeutic agents on the growth of bacteria, the LAPT-g media, prepared as described above, was supplemented with various nitrogen containing compound therapeutic agents to a final test concentration between 0.1 and 1.0%. As initial screening measures, solubility and initial pH of each composition were checked. If a specific composition was insoluble (as detected by visual indication of precipitates or turbidity), then no further therapeutic efficacy testing was undertaken on that composition. Additionally, if the initial pH of the composition was below 5.5 (“Low”) or was above 6.5 (“High”), then no further therapeutic efficacy testing was undertaken on that composition.

[2] = Initial pH screening of the composition; assay type: physicochemical; details: for I pH (initial pH), 0.10%: nitrogen compound 0.10 wt/vol % with 1.0 wt/vol % α methyl-D glucoside in medium; for I pH (initial pH), 0.50%: nitrogen compound 0.50 wt/vol % with 1.0 wt/vol % α methyl-D glucoside in medium; for I pH (initial pH), 1.00%: nitrogen compound 1.00 wt/vol % with 1.0 wt/vol % α methyl-D glucoside in medium
Summary of the method: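 Compounds were added to LAPT-g medium (pH adjusted to 6.5) at a final 0.1-1.0%. Solubility was judged visually by precipitate or turbidity, and insoluble compositions got no pH measurement. Initial pH was scored Low (<5.5), High (>6.5) or Pass (5.5-6.5), and only soluble Pass compositions went on to efficacy testing.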

[3] = tested on: L. crispatus and E. coli; experiment: Therapeutic Effect Protocol: L. crispatus / E. coli co-culture, ratio after 36 hours; assay type: cell-based, Lactobacillus crispatus; E. coli; details: for Therapeutic Efficacy Results (Lactobacillus/E. coli) 0.10%: nitrogen compound 0.10 wt/vol % with 1.0 wt/vol % α methyl-D glucoside (10:1); for Therapeutic Efficacy Results (Lactobacillus/E. coli) 0.10% / Therapeutic Efficacy Results (Lactobacillus/E. coli) 0.50% / Therapeutic Efficacy Results (Lactobacillus/E. coli) 1.00%: 36 hours anaerobic co-culture, 37° C.; for Therapeutic Efficacy Results (Lactobacillus/E. coli) 0.50%: nitrogen compound 0.50 wt/vol % with 1.0 wt/vol % α methyl-D glucoside (2:1); for Therapeutic effect when ratio α methyl-D glucoside : nitrogen compound is at least about 2:1, but not at 1:1 / Therapeutic effect when ratio α methyl-D glucoside : nitrogen compound is less than 2:1 (1:1) / Therapeutic effect at ratio 2:1 and 10:1, but not at 1:1 / Therapeutic effect (ratio of Lactobacillus to E. coli greater than 2) at each concentration tested: with α methyl-D glucoside; for Therapeutic effect when ratio α methyl-D glucoside : nitrogen compound is at least about 2:1, but not at 1:1: ratio at least about 2:1, not 1:1; for Therapeutic Efficacy Results (Lactobacillus/E. coli) 1.00%: nitrogen compound 1.00 wt/vol % with 1.0 wt/vol % α methyl-D glucoside (1:1); for Therapeutic effect when ratio α methyl-D glucoside : nitrogen compound is less than 2:1 (1:1): ratio 1:1; for Therapeutic effect at ratio 2:1 and 10:1, but not at 1:1: ratios 2:1 and 10:1, not 1:1; for Therapeutic effect (ratio of Lactobacillus to E. coli greater than 2) at each concentration tested: nitrogen compound 1 wt/vol %, 0.5 wt/vol % and 0.1 wt/vol %
Summary of the method: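 L. crispatus and E. coli were mixed 1,000:1 (10^5-10^6 and 100-1,000 CFU per 5 mL tube) in LAPT-g medium at pH 6.5, containing 1% α-methyl-D-glucoside plus nitrogen compound at 0.1-1% w/v, in duplicate. After 36 h anaerobic incubation at 37 °C, each species was counted by selective plating (MRS anaerobic, TSA aerobic), and the L. crispatus:E. coli ratio and final pH were recorded.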

Solubility of the composition, 0.10% ([1]; nitrogen compound 0.10 wt/vol % with 1.0 wt/vol % α methyl-D glucoside in medium)	Solubility of the composition, 0.50% [1]	Solubility of the composition, 1.00% [1]	Structure (SMILES)	I pH (initial pH), 0.10% [2]	I pH (initial pH), 0.50% [2]	Therapeutic Efficacy Results (Lactobacillus/E. coli) 0.10% [3]	Therapeutic Efficacy Results (Lactobacillus/E. coli) 0.50% [3]	Therapeutic effect when ratio α methyl-D glucoside : nitrogen compound is at least about 2:1, but not at 1:1 [3]	I pH (initial pH), 1.00% [2]	Therapeutic Efficacy Results (Lactobacillus/E. coli) 1.00% [3]	Therapeutic effect when ratio α methyl-D glucoside : nitrogen compound is less than 2:1 (1:1) [3]	Therapeutic effect at ratio 2:1 and 10:1, but not at 1:1 [3]	Therapeutic effect (ratio of Lactobacillus to E. coli greater than 2) at each concentration tested [3]
Insol.	Insol.	Insol.	Nc1ncnc2nc[nH]c12 [Adenine]	–	–	–	–	–	–	–	–	–	–
–	–	Insol.	Nc1ncnc2c1ncn2[C@@H]1O[C@H](CO)[C@@H](O)[C@H]1O [Adenosine]	P (a Pass initial pH corresponds to the pH being at or between 5.5-6.5)	P (a Pass initial pH corresponds to the pH being at or between 5.5-6.5)	<100	0.97	provided a therapeutic effect	–	–	–	–	–
–	–	Insol.	NC(=O)NC1NC(=O)NC1=O (stereo not drawn) [Allantoin]	P (a Pass initial pH corresponds to the pH being at or between 5.5-6.5)	P (a Pass initial pH corresponds to the pH being at or between 5.5-6.5)	0.9	1.37	–	–	–	–	–	–
–	–	Insol.	NC(=O)C[C@H](N)C(=O)O [L-Asparagine]	P (a Pass initial pH corresponds to the pH being at or between 5.5-6.5)	P (a Pass initial pH corresponds to the pH being at or between 5.5-6.5)	1.12	1.72	–	–	–	–	–	–
–	Insol.	Insol.	N[C@@H](Cc1c[nH]cn1)C(=O)O [L-Histidine]	P (a Pass initial pH corresponds to the pH being at or between 5.5-6.5)	–	1.11	–	–	–	–	–	–	–
–	–	–	Cl.NCCC[C@H](N)C(=O)O [L-Ornthine]	P (a Pass initial pH corresponds to the pH being at or between 5.5-6.5)	P (a Pass initial pH corresponds to the pH being at or between 5.5-6.5)	1.31	1.24	–	P (a Pass initial pH corresponds to the pH being at or between 5.5-6.5)	3.97	provided a therapeutic effect	–	–
–	–	–	N[C@@H](CO)C(=O)O [L-Serine]	P (a Pass initial pH corresponds to the pH being at or between 5.5-6.5)	P (a Pass initial pH corresponds to the pH being at or between 5.5-6.5)	393	>299	provided a therapeutic effect	P (a Pass initial pH corresponds to the pH being at or between 5.5-6.5)	0.45	–	provided a therapeutic effect	–
–	–	–	C[C@@H](O)[C@H](N)C(=O)O [L-Threonine]	P (a Pass initial pH corresponds to the pH being at or between 5.5-6.5)	P (a Pass initial pH corresponds to the pH being at or between 5.5-6.5)	0.74	1.13	–	P (a Pass initial pH corresponds to the pH being at or between 5.5-6.5)	0.36	–	–	–
–	–	–	N[C@@H](Cc1ccc(O)cc1)C(=O)O [L-Tyrosine]	P (a Pass initial pH corresponds to the pH being at or between 5.5-6.5)	–	2.72	–	–	–	–	–	–	–
–	–	–	CC(C)[C@H](N)C(=O)O [L-Valine]	P (a Pass initial pH corresponds to the pH being at or between 5.5-6.5)	P (a Pass initial pH corresponds to the pH being at or between 5.5-6.5)	1.34	0.38	–	P (a Pass initial pH corresponds to the pH being at or between 5.5-6.5)	1.01	–	–	–
–	–	–	CSCC[C@H](N)C(=O)N[C@@H](C)C(=O)O [Met-Ala] (H-Met-Ala-OH)	P (a Pass initial pH corresponds to the pH being at or between 5.5-6.5)	L (A Low initial pH corresponds to an initial pH being less than 5.5)	7.33	–	provided a therapeutic effect	L (A Low initial pH corresponds to an initial pH being less than 5.5)	–	–	–	–
–	–	–	CNCCc1ccccc1.Cl [Methyl(2-phenylethyl)amine Hydrochloride]	P (a Pass initial pH corresponds to the pH being at or between 5.5-6.5)	P (a Pass initial pH corresponds to the pH being at or between 5.5-6.5)	10	<1.00	provided a therapeutic effect	P (a Pass initial pH corresponds to the pH being at or between 5.5-6.5)	3	provided a therapeutic effect	–	–
–	–	–	CC(=O)N[C@H]1C(O)O[C@H](CO)[C@H](O)[C@@H]1O (stereo partly drawn) [N-Acetyl-D-Galactosamine]	P (a Pass initial pH corresponds to the pH being at or between 5.5-6.5)	P (a Pass initial pH corresponds to the pH being at or between 5.5-6.5)	130	>100	provided a therapeutic effect	P (a Pass initial pH corresponds to the pH being at or between 5.5-6.5)	0.65	–	provided a therapeutic effect	–
–	–	–	CC(=O)N[C@H]1C(O)O[C@H](CO)[C@@H](O)[C@@H]1O (stereo partly drawn) [N-Acetyl-D-Glucosamine]	P (a Pass initial pH corresponds to the pH being at or between 5.5-6.5)	P (a Pass initial pH corresponds to the pH being at or between 5.5-6.5)	8.33	211	–	P (a Pass initial pH corresponds to the pH being at or between 5.5-6.5)	7.00E+06	provided a therapeutic effect	–	provided a therapeutic effect
–	–	–	CC(=O)N[C@@H]1C(O)O[C@H](CO)[C@@H](O)[C@@H]1O (stereo partly drawn) [N-Acetyl-D-Mannosamine]	P (a Pass initial pH corresponds to the pH being at or between 5.5-6.5)	P (a Pass initial pH corresponds to the pH being at or between 5.5-6.5)	0.854	100	provided a therapeutic effect	P (a Pass initial pH corresponds to the pH being at or between 5.5-6.5)	0.02	–	–	–
–	–	–	c1cncnc1 [Pyrimidine]	P (a Pass initial pH corresponds to the pH being at or between 5.5-6.5)	P (a Pass initial pH corresponds to the pH being at or between 5.5-6.5)	245	>4760	–	P (a Pass initial pH corresponds to the pH being at or between 5.5-6.5)	4.05	provided a therapeutic effect	–	provided a therapeutic effect
